According to article PMC5075699:
Several values for one entry are separate records, joined by “and”; a condition that tells them apart may be missing. Equal entries are not always repeated.

How the values were obtained:
[1] = system: prion disease mouse models; conditions: in vivo, ip, 0.25 mg/kg; cited from earlier work
rodents = system: rodents; design: method as in Sidrauski et al., 2013; conditions: delivered immediately after a stimulus or behavioral task; ref Sidrauski et al., 2013; cited from earlier work
[2] = design: method as in Di Prisco et al., 2014; conditions: acute treatment; ref Di Prisco et al., 2014; cited from earlier work
nontransgenic mice [3] = assay: Contextual fear conditioning; conditions: ISRIB 2.5mpk, individual mice
hAPP-J20 (J20) mice = assay: Morris water maze #2, hAPP-J20 mice; conditions: for %Target Quadrant / Crossing Frequency / Latency to Target / Training Latency: ISRIB 2.5mpk in DMSO/PEG
nontransgenic (NTG) mice = assay: Morris water maze #2, nontransgenic (NTG) mice; conditions: for %Target Quadrant / Crossing Frequency / Latency to Target / Training Latency: ISRIB 2.5mpk in DMSO/PEG
nontransgenic mice [4] = assay: Pilot Morris water maze #1 (spatial learning and memory); conditions: 0.1 mpk i.p. after each training trial; vs vehicle
[5] = Fig 4E, NTG mice, individual mice
[6] = Fig 4F, NTG mice, individual animals

O=C(COc1ccc(Cl)cc1)NC1CCC(NC(=O)COc2ccc(Cl)cc2)CC1 (stereo not shown) [ISRIB]
extension of survival [1]: approximately 1 week | effect on spatial and fear memory (rodents): enhance spatial and fear memory | effect on object-place learning [2]: interfered with proper object-place learning | Post-Shock (nontransgenic mice [3]; Fig 3A): 6.61 and 2.22 and 0 and 2.28 and 2.39 and 18.72 and 31.39 and 15.72 and 15.83 and 8.22 and 17.11 and 7.56 and 7 and 11.33 and 13.11 and 8.28 and 20.33 and 19.33 and 29.44 and 32.33 and 27.56 | Pre-Shock (nontransgenic mice [3]; Fig 3A): 1.67 and 0 and 0.97 and 2.33 and 0.86 and 33.64 and 1.83 and 1.44 and 1.08 | 1st 4 min context (nontransgenic mice [3]; Fig 3B): 11.1 and 4.75 and 30.01 and 15.49 and 4.44 and 18.51 and 26.85 and 38.13 and 45.92 and 9.61 and 2.13 and 12.76 and 6.75 and 15.99 and 18.96 and 31.54 and 27.17 and 21.38 and 27.25 and 14.79 and 16.25 and 41.57 and 18.94 and 33.54 and 25.69 and 47.14 and 19.89 and 27.42 and 56.35 and 28.89 | 2nd 4 min context (nontransgenic mice [3]; Fig 3B): 31.29 and 5.25 and 33.13 and 30.94 and 0 and 19.46 and 29.43 and 31.87 and 22.86 and 6.96 and 10.43 and 9.1 and 5.42 and 17.46 and 22.21 and 24.07 and 43.26 and 31.68 and 31.22 and 19.13 and 25.14 and 47.79 and 41.86 and 24.76 and 22.15 and 38.53 and 12.88 and 14.39 and 38.49 and 10.29 | 8 min context (nontransgenic mice [3]; Fig 3B): 21.54 and 5 and 31.79 and 23.22 and 2.22 and 18.99 and 28.14 and 35.24 and 34.55 and 8.28 and 6.28 and 10.93 and 6.08 and 16.72 and 20.58 and 27.86 and 35.22 and 26.54 and 29.26 and 16.96 and 20.81 and 44.68 and 30.75 and 29.15 and 24.19 and 43.22 and 16.38 and 20.9 and 47.8 and 19.59 | learning during the training trials (hAPP-J20 (J20) mice; 0.25 or 2.5 mpk): did not observe an improvement in learning | spatial memory treatment effects (hAPP-J20 (J20) mice; 72 hour probe trial, 0.25 or 2.5 mpk): did not observe significantly positive treatment effects | %Target Quadrant (hAPP-J20 (J20) mice; Fig 4E, individual mice): 31.3647% and 28.3617% and 19.6864% and 31.5871% and 22.6894% and 33.1443% and 19.1302% and 8.787% and 27.8056% and 30.5861% and 20.9098% and 21.7996% | Crossing Frequency (hAPP-J20 (J20) mice; Fig 4E, individual mice): 3 and 2 and 0 and 1 | Latency to Target (hAPP-J20 (J20) mice; Fig 4E, individual mice): 3.136 and 38.1715 and 60 and 8.542 and 51.318 and 28.5619 and 11.0777 | Crossing Frequency (hAPP-J20 (J20) mice; Fig 4F, individual animals): 3 and 1 and 0 and 4 | Latency to Target (hAPP-J20 (J20) mice; Fig 4F, individual animals): 7.941 and 17.6843 and 60 and 4.8048 and 4.538 and 12.7461 and 25.1585 and 9.076 | %Target Quadrant (hAPP-J20 (J20) mice; Fig 4F, individual mice): 32.9218% and 31.4759% and 23.2455% and 26.026% and 17.9068% and 37.2595% and 13.013% and 23.1343% and 9.676% and 36.9258% and 20.7986% and 27.6944% | Training Latency (hAPP-J20 (J20) mice; Trial 8, individual mice (Fig 4A-D)): 120.187 (5×) and 47.5142 and 79.2125 and 54.9216 and 27.9613 and 39.306 and 87.0204 and 3.937 | Training Latency (hAPP-J20 (J20) mice; Trial 9, individual mice (Fig 4A-D)): 119.052 and 25.2252 and 42.5759 and 34.301 and 6.673 and 11.3447 and 10.8775 and 120.187 (2×) and 96.2296 and 50.5839 and 5.272 | Training Latency (hAPP-J20 (J20) mice; Trial 10, individual mice (Fig 4A-D)): 11.3447 and 82.5492 and 23.8906 and 120.187 (3×) and 29.1625 and 43.9106 and 12.3457 and 39.2392 and 38.9056 and 8.008 | Training Latency (hAPP-J20 (J20) mice; Trial 11, individual mice (Fig 4A-D)): 26.293 and 117.251 and 19.4861 and 120.187 (5×) and 28.2282 and 11.4781 and 13.4134 and 31.1645 | MWM training latency NTG Trial*ISRIB (linear mixed effects regression model) (nontransgenic (NTG) mice; 0.25 mpk in 1% DMSO/saline, vs vehicle): −0.1 sec/day | %Target Quadrant (nontransgenic (NTG) mice; [5]): 53.4979% and 33.8116% and 21.5771% and 31.9208% and 40.8186% and 33.2555% and 14.7926% and 38.7054% and 50.3837% and 29.8076% and 34.8126% and 37.4819% | Crossing Frequency (nontransgenic (NTG) mice; [5]): 7 and 3 and 0 and 4 and 2 and 1 and 6 | Latency to Target (nontransgenic (NTG) mice; [5]): 12.9463 and 11.6116 and 60 and 7.741 and 3.4034 and 4.6046 and 17.8846 and 5.806 and 58.7921 and 9.409 and 18.6186 | %Target Quadrant (nontransgenic (NTG) mice; Fig 4F, NTG mice, individual mice): 51.4959% and 27.4719% and 32.1433% and 20.02% and 23.9128% and 54.4989% and 37.8156% and 28.8066% and 47.6032% and 24.024% and 39.8176% | Crossing Frequency (nontransgenic (NTG) mice; [6]): 7 and 3 and 5 and 2 and 1 | Latency to Target (nontransgenic (NTG) mice; [6]): 10.7441 and 4.6046 and 20.3537 and 7.474 and 3.27 and 20.1535 and 5.6056 and 21.1545 and 23.6904 and 21.4214 and 20.287 and 19.2859 | Training Latency (nontransgenic (NTG) mice; NTG mice, Trial 8, individual mice (Fig 4A-D)): 2.936 and 11.4781 and 15.9493 and 10.5439 and 6.139 and 7.074 and 4.8048 and 33.3667 and 6.74 and 48.7821 and 3.871 and 75.7424 | Training Latency (nontransgenic (NTG) mice; NTG mice, Trial 9, individual mice (Fig 4A-D)): 45.6457 and 6.273 and 8.742 and 30.297 and 12.6793 and 5.739 and 57.0571 and 4.8048 and 11.8118 and 7.341 and 70.1368 and 5.138 | Training Latency (nontransgenic (NTG) mice; NTG mice, Trial 10, individual mice (Fig 4A-D)): 3.737 and 4.004 and 28.295 and 62.9963 and 3.67 and 21.6216 and 5.939 and 22.6226 and 8.542 and 19.4861 and 60 and 4.271 | Training Latency (nontransgenic (NTG) mice; NTG mice, Trial 11, individual mice (Fig 4A-D)): 31.7651 and 42.1088 and 14.281 and 24.7581 and 7.074 and 6.54 and 24.024 and 52.7861 and 11.6116 and 20.7541 and 39.5062 and 3.6036 | learning during the training trials (nontransgenic (NTG) mice; NTG mice, 0.25 or 2.5 mpk): did not observe an improvement in learning | spatial memory treatment effects (nontransgenic (NTG) mice; NTG mice, 72 hour probe trial, 0.25 or 2.5 mpk): did not observe significantly positive treatment effects | MWM training distance Trial*ISRIB (linear mixed effects regression model) (nontransgenic mice [4]): -35 cm/day
